Results published in ChEMBL document CHEMBL1201862, “PubChem BioAssay data set” (2004).
Calls of active or inactive are those of the source.

What was measured:
[1] = molecular target: DNA dC->dU-editing enzyme APOBEC-3G (Homo sapiens, UniProt Q9HC16); type: functional;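 also: Dose-response counterscreen measuring inhibition of APOBEC3G DNA deaminase activity, run while confirming APOBEC3A inhibitors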
Keap1/Nrf2 = Keap1/Nrf2 (Homo sapiens, UniProt Q14145); assay: Keap1-Nrf2 protein-protein interaction inhibitors, dose response, biochemical, fluorescence polarization, cherry-picked samples (AID 588683)
[2] = molecular target: UDP-galactopyranose mutase (Mycobacterium tuberculosis, UniProt P9WIQ1); assay: Inhibitors of Mycobacterium tuberculosis UDP-galactopyranose mutase (UGM) enzyme Measured in Biochemical System Using Plate Reader - 2105-02_Inhibitor_Dose_CherryPick_Activity. [Related pubchem assays (depositor defined):AID504439]
[3] = molecular target: DNA dC->dU-editing enzyme APOBEC-3A (Homo sapiens, UniProt P31941); assay: Dose Response confirmation of small molecule APOBEC3A DNA Deaminase Inhibitors via a fluorescence-based single-stranded DNA deaminase assay. [Related pubchem assays (depositor defined):AID493011, AID493024]; type: functional
ORF 73 = molecular target: T1, ORF 73 (Human herpesvirus 8, UniProt O40947); assay: inhibitors of C-LANA binding to LBS DNA, dose response, biochemical, fluorescence polarization, cherry-picked samples (AID 504725); set-up: species or system Human gammaherpesvirus 8;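 also: fluorescence polarization of a labeled DNA duplex reporting LANA DNA binding; potency is for inhibitors that block LANA binding to the DNA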
T1 sequence (O40947 whole entry): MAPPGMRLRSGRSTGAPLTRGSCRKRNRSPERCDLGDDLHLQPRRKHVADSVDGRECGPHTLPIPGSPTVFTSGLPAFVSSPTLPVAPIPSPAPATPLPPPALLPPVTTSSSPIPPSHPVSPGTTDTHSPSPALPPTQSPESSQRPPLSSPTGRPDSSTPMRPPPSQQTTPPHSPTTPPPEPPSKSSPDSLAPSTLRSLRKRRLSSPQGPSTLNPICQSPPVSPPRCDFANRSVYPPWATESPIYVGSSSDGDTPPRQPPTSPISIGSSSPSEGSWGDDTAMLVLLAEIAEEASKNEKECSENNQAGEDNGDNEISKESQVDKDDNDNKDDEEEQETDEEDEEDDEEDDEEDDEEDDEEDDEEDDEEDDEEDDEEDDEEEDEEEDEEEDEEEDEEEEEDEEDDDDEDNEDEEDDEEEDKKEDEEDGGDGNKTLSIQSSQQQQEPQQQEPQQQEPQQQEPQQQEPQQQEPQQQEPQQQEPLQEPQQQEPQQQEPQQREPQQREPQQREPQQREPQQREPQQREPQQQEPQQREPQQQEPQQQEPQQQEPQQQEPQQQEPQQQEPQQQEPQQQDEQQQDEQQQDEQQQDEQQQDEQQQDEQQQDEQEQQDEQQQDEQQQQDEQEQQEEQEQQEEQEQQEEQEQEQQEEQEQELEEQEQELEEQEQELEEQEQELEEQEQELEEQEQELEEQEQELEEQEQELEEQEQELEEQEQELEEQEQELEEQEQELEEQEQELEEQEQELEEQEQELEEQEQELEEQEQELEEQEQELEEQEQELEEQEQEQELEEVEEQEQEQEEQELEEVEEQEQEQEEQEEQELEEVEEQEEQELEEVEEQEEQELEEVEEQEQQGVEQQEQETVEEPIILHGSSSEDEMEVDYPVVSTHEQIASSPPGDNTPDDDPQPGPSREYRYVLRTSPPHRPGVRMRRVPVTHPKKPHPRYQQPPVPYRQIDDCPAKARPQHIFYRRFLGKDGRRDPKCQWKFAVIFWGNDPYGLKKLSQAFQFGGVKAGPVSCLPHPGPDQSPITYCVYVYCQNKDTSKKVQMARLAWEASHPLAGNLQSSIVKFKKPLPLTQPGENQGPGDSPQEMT

Cytochrome P450 2D6 = Cytochrome P450 2D6 (Homo sapiens, UniProt P10635);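 also: CYP2D6 member of a cytochrome P450 panel assay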
Cytochrome P450 3A4 = Cytochrome P450 3A4 (Homo sapiens, UniProt P08684);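 also: CYP3A4 tested as one member of a cytochrome P450 panel screen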
[4] = molecular target: Phosphoethanolamine/phosphocholine phosphatase (Homo sapiens, UniProt Q8TCT1); assay: SAR assay for compounds that inhibit PHOSPHO1. [Related pubchem assays (depositor defined):AID1545, AID1565, AID1574]
[5] = molecular target: T2, Mannose-6-phosphate isomerase (Homo sapiens, UniProt P34949); assay: PMI enzyme inhibitors, confirmation, biochemical, fluorescence intensity (AID 1535)
T2 sequence (P34949 whole entry): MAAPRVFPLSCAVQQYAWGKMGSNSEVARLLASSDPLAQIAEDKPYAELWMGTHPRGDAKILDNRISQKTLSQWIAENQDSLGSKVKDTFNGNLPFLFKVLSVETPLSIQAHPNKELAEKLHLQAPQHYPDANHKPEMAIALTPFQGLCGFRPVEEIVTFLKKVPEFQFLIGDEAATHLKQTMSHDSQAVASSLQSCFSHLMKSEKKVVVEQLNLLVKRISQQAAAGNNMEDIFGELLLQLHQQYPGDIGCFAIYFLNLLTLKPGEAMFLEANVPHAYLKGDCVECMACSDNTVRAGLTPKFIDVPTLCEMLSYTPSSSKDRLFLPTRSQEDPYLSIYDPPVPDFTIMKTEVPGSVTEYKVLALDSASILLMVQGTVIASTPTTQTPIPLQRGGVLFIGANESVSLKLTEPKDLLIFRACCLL

Phosphomannomutase 2 = molecular target: T3, Phosphomannomutase 2 (Homo sapiens, UniProt O15305); assay: Counter screen SAR assay for PMM2 inhibitors via a fluorescence intensity assay. [Related pubchem assays (depositor defined):AID1545, AID1574]
T3 sequence (O15305 whole entry): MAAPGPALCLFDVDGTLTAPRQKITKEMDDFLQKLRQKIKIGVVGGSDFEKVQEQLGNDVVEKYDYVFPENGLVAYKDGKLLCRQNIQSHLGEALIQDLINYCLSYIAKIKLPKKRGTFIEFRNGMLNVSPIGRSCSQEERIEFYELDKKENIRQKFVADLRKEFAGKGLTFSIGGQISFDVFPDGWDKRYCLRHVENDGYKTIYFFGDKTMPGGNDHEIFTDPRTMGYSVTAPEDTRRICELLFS

[6] = molecular target: Kappa-type opioid receptor (Homo sapiens, UniProt P41145); assay: SAR analysis of small molecule agonists of the kappa opioid receptor via a luminescent beta-arrestin assay - Set 3. [Related pubchem assays (depositor defined):AID1777, AID1785, AID1786, AID1966, AID2133, AID2136, AID2284, AID2500]; type: functional
Kappa-type opioid receptor, sequence (P41145 whole entry): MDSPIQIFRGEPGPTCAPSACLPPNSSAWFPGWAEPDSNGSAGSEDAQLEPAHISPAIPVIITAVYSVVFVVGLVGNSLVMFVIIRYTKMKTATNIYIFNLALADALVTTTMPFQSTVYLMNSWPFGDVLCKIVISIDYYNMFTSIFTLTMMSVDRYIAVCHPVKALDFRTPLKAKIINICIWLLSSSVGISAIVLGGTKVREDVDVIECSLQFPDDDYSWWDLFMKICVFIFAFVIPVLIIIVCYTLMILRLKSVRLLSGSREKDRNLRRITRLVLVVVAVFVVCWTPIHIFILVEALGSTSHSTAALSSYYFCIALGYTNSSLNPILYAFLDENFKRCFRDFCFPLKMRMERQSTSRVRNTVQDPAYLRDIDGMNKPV

Phosphoethanolamine/phosphocholine phosphatase, sequence (Q8TCT1 whole entry): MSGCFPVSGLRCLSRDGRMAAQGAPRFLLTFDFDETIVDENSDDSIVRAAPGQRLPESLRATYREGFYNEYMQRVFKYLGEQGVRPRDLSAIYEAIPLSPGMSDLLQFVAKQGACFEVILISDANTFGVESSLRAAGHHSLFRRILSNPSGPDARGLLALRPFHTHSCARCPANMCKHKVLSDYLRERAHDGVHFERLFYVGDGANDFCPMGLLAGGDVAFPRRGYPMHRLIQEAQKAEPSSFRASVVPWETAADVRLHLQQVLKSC
Keap1/Nrf2, sequence (Q16236 whole entry): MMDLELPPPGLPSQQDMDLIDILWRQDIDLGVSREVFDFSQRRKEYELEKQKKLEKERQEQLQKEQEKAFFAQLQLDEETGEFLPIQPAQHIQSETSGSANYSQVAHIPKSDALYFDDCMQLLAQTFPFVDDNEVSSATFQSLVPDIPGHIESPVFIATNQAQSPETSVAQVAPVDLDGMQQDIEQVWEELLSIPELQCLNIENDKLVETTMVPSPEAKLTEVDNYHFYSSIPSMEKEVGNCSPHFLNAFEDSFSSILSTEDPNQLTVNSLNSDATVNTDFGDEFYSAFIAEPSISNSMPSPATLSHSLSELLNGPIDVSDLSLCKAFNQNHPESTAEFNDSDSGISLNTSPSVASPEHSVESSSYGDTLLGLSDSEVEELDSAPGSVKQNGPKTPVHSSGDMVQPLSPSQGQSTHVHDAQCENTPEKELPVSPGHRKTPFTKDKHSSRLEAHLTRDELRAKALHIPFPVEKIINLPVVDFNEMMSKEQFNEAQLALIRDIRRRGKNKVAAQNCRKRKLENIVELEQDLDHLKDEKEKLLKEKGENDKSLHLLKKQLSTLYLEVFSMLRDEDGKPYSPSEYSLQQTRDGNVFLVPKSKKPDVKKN
Keap1/Nrf2, sequence (Q14145 whole entry): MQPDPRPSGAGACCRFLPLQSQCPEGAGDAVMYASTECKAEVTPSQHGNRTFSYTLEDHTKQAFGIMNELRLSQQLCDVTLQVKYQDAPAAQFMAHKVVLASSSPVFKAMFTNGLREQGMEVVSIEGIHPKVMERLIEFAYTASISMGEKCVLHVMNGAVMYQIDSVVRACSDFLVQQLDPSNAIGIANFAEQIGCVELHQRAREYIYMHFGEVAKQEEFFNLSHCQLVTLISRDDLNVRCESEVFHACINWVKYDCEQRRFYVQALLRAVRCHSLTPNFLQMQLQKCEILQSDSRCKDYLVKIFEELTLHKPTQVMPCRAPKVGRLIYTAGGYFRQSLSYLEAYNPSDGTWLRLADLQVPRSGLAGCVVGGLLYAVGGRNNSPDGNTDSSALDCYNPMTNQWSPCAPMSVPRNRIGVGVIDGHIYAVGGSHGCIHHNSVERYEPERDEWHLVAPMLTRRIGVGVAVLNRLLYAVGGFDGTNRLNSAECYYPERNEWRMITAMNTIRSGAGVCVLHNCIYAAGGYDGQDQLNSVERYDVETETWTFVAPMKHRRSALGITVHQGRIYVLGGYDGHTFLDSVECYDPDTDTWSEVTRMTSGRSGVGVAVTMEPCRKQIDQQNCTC
UDP-galactopyranose mutase, sequence (P9WIQ1 whole entry): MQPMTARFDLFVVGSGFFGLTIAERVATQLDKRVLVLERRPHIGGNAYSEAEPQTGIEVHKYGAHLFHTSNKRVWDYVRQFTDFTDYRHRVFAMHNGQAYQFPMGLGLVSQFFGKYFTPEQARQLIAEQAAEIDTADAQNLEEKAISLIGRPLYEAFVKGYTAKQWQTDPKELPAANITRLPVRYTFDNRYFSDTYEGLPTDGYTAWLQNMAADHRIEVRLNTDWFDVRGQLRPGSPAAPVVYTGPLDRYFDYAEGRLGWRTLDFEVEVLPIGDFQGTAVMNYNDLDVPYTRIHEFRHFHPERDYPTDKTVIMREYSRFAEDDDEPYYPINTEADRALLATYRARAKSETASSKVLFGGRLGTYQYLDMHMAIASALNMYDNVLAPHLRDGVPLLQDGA
DNA dC->dU-editing enzyme APOBEC-3G, sequence (Q9HC16 whole entry): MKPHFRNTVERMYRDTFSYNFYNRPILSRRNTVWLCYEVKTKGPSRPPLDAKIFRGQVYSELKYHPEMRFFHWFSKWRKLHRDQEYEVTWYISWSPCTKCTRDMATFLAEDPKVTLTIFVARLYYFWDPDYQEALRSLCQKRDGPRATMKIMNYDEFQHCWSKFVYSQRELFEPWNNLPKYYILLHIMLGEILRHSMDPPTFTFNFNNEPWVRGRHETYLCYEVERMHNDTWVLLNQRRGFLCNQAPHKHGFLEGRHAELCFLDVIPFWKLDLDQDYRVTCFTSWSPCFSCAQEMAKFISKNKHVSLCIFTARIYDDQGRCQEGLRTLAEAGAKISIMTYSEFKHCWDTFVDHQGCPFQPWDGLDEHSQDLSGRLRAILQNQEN
DNA dC->dU-editing enzyme APOBEC-3A, sequence (P31941 whole entry): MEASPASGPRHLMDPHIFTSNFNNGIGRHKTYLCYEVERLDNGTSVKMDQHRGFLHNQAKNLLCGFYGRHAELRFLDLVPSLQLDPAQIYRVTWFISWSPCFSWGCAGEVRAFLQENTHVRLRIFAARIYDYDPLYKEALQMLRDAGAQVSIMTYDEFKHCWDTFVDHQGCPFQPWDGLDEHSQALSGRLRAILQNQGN
Cytochrome P450 3A4, sequence (P08684 whole entry): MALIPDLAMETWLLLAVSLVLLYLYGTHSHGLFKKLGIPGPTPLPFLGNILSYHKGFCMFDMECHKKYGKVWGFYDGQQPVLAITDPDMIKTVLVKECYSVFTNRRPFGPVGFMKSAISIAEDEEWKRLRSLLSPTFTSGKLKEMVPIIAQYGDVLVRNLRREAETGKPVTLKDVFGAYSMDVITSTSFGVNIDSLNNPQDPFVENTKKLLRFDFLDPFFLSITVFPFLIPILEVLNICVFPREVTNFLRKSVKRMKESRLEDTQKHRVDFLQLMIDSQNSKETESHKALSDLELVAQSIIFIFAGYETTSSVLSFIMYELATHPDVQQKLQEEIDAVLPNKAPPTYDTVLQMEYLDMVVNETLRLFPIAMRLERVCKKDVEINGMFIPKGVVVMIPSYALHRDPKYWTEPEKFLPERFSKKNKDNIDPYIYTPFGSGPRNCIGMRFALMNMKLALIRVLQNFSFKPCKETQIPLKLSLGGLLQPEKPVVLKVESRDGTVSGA
Cytochrome P450 2D6, sequence (P10635 whole entry): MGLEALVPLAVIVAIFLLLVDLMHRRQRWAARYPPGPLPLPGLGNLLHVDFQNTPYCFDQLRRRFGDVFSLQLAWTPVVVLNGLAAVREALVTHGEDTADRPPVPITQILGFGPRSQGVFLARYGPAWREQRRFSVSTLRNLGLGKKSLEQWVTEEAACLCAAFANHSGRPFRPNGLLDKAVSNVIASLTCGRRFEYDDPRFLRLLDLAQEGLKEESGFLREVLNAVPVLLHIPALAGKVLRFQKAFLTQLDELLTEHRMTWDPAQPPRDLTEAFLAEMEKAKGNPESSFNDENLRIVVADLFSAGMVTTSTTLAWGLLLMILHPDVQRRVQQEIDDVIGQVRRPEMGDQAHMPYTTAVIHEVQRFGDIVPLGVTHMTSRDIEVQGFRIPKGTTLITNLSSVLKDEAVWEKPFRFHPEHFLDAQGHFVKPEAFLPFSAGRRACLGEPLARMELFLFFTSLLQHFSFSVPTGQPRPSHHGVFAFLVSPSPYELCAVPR

SMILES: COC(=O)C[n+]1cccc2ccccc21
- IC50 [1]: 4.46 µM (active)
- AC50 (Keap1/Nrf2): 20.8 µM (active)
- AC50 [2]: 35.7 µM (active)
- IC50 [3]: 2.81 µM (active)
- AC50 (ORF 73): 6.51 µM (active)

SMILES: Cc1ccc(CC(=O)N2CC(C)OC(C)C2)cc1 (stereo unspecified)
- AC50 (Cytochrome P450 2D6): inconclusive
- AC50 (Cytochrome P450 3A4): inconclusive

SMILES: CCN(CC)S(=O)(=O)c1ccc(-n2sc3ccccc3c2=O)cc1
- IC50 [4]: 6.21 µM (inactive)
- IC50 [5]: > 50 µM (inactive)
- IC50 (Phosphomannomutase 2): > 100 µM (inactive)

SMILES: Brc1ccc(-c2nnc(SCc3ccccc3)n2Cc2ccco2)cc1
- EC50 [6]: > 20 µM (inactive)
